According to ChEMBL document CHEMBL1201862, “PubChem BioAssay data set” (2004):
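Interpolation was linear, between the two tested concentrations surrounding the appropriate level; five concentrations were tested over 48 hours in 96-well plates. Here, GI50 denotes the concentration required for 50% inhibition of growth.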 The source made the active and inactive calls. No stated cut-off is given here; in the data, active = GI50 up to about 1.1 µM and inactive = higher.

Key:
Assay in all cases: DTP human tumour cell line panel, 48 h
[1] = tested on: SK-MEL-5
[2] = tested on: OVCAR-3
[3] = tested on: LOX IMVI
[4] = tested on: HCC 2998
[5] = tested on: UACC-257
[6] = tested on: HT-29
[7] = tested on: OVCAR-5
[8] = tested on: Malme-3M
[9] = tested on: CAKI-1
[10] = tested on: SNB-75
[11] = tested on: A498
[12] = tested on: UACC-62
[13] = tested on: SK-OV-3
[14] = tested on: LXFL 529
[15] = tested on: SR
[16] = tested on: RXF 393
[17] = tested on: CCRF-CEM
[18] = tested on: COLO 205

Row | SMILES | GI50 [1] | GI50 [2] | GI50 [3] | GI50 [4] | GI50 [5] | GI50 [6] | GI50 [7] | GI50 [8] | GI50 [9] | GI50 [10] | GI50 [11] | GI50 [12] | GI50 [13] | GI50 [14] | GI50 [15] | GI50 [16] | GI50 [17] | GI50 [18]
1 | CCOC(=O)C12CCCC1(O)N(NC(=O)c1cccc(Cl)c1)C(C)=C2C(=O)OC (stereo unspecified) | > 100 µM (inactive) | > 100 µM (inactive) | > 100 µM (inactive) | > 100 µM (inactive) | 69.5 µM (inactive) | > 100 µM (inactive) | > 100 µM (inactive) | > 100 µM (inactive) | > 100 µM (inactive) | 34.5 µM (inactive) | > 100 µM (inactive) | > 100 µM (inactive) | > 100 µM (inactive) | > 100 µM (inactive) | 53 µM (inactive) | 46.5 µM (inactive) |  | 
2 | CCN(CC)CC(=O)NC1c2ccccc2Oc2c(C)cccc21 (stereo unspecified) | 69.5 µM (inactive) |  | > 100 µM (inactive) | > 100 µM (inactive) | > 100 µM (inactive) | > 100 µM (inactive) | > 100 µM (inactive) |  |  | 49.5 µM (inactive) |  | > 100 µM (inactive) | > 100 µM (inactive) | > 100 µM (inactive) | 57.7 µM (inactive) | 38.7 µM (inactive) | > 100 µM (inactive) | > 100 µM (inactive)
3 | N#CC12Cc3ccc4c(c3-c3cccc(c31)CCN2C(=O)c1ccccc1)OCO4 (stereo unspecified) | > 100 µM (inactive) | > 100 µM (inactive) | > 100 µM (inactive) | > 100 µM (inactive) | > 100 µM (inactive) | > 100 µM (inactive) | > 100 µM (inactive) | 64 µM (inactive) |  | 34.7 µM (inactive) | 68.4 µM (inactive) | > 100 µM (inactive) | > 100 µM (inactive) | > 100 µM (inactive) | > 100 µM (inactive) | > 100 µM (inactive) | > 100 µM (inactive) | > 100 µM (inactive)
4 | CC(C)C(=O)N1C(=O)O[C@@H](c2ccccc2)[C@H]1C | > 100 µM (inactive) | > 100 µM (inactive) | > 100 µM (inactive) | > 100 µM (inactive) | > 100 µM (inactive) | > 100 µM (inactive) | > 100 µM (inactive) | > 100 µM (inactive) | > 37 µM (inactive) | > 100 µM (inactive) | > 100 µM (inactive) | > 100 µM (inactive) | > 100 µM (inactive) | > 100 µM (inactive) | > 100 µM (inactive) | > 84.1 µM (inactive) | > 100 µM (inactive) | > 100 µM (inactive)
5 | O=CC1=CCC2c3[nH]c4ccccc4c3CCN2C1 (stereo unspecified) | 114 µM (inactive) | 92.5 µM (inactive) | 58.7 µM (inactive) | 103 µM (inactive) | 98.9 µM (inactive) | 101 µM (inactive) | > 396 µM (inactive) | 296 µM (inactive) | > 396 µM (inactive) |  |  | 93.8 µM (inactive) | 132 µM (inactive) | 55.7 µM (inactive) | 105 µM (inactive) | 182 µM (inactive) | 107 µM (inactive) | 232 µM (inactive)
6 | Clc1ccc(CCn2cncn2)c(Cl)c1 | > 100 µM (inactive) | > 100 µM (inactive) |  | > 100 µM (inactive) | > 100 µM (inactive) | > 100 µM (inactive) | > 100 µM (inactive) |  | > 100 µM (inactive) | > 100 µM (inactive) |  | > 100 µM (inactive) | > 100 µM (inactive) | > 100 µM (inactive) | > 100 µM (inactive) |  | > 100 µM (inactive) | > 100 µM (inactive)
7 | COC(=O)C1CCC2(C)[C@H](CCC3O[C@]32C)[C@@]1(C)CC(=O)c1ccoc1 (stereo partly specified) | 66.1 µM (inactive) | > 100 µM (inactive) | > 100 µM (inactive) | > 100 µM (inactive) | > 100 µM (inactive) |  | > 100 µM (inactive) | > 100 µM (inactive) | > 100 µM (inactive) |  | 43 µM (inactive) | 88.5 µM (inactive) | 0.0406 µM (active) | 40.6 µM (inactive) | 41.5 µM (inactive) | > 100 µM (inactive) | 31.1 µM (inactive) | > 100 µM (inactive)
8 | COC(=O)CC(C(C(C)=O)C(=O)OCc1ccccc1)N1C(=O)OCC1c1ccccc1 (stereo unspecified) | 47.8 µM (inactive) | 87.9 µM (inactive) | > 100 µM (inactive) | > 100 µM (inactive) | 93.5 µM (inactive) | > 100 µM (inactive) |  | > 100 µM (inactive) |  | 15.5 µM (inactive) | 67.9 µM (inactive) | 44.2 µM (inactive) |  | 83.2 µM (inactive) | 74.5 µM (inactive) | > 100 µM (inactive) | > 100 µM (inactive) | > 100 µM (inactive)
